Counter-ions that a name gives are not always drawn.
Key:
[1] = test system: diet-induced obese male Long-Evans rats; assay: In vivo efficacy: food intake and body weight change in diet-induced obese rats; set-up: species or system rat; conditions: 10 mg/Kg, oral gavage once a day for 3 days
Description: Vehicle consisted of 10% acacia and 0.15% saccharin in water.
House animals individually in a temperature regulated room (24° C.) with a reverse 12 hour light/dark cycle (dark 10:00/22:00). Make water and food (Teklad 95217, Harlan, Wis.) available ad libitum. Dose compounds orally once a day before onset of dark for 3 days. Measure daily food intake and body weight change for the 3 day period. The compound of Example 25 produces an average body weight reduction of about 6 grams@10 mg/Kg versus vehicle control.

[2] = target: T1, MCHR1 (Homo sapiens, UniProt Q99705); assay: 125I-MCH competitive binding assay with clone 43 membranes (SPA); conditions: 125I-MCH binding, Ki from IC50 by Cheng-Prusoff
T1 construct: The full-length cDNA for human MCHR1 is cloned; expressed in transfected cells; host or cells: AV12 cells previously transfected with Gα15; membranes
Description: The full-length cDNA for human MCHR1 is cloned from a human adult brain cDNA library (Edge Biosystems, Cat. 38356) by standard polymerase chain reaction (PCR) methodology employing the following primers: sense, 5′-GCCACCATGGACCT GGAAGCCTCGCTGC-3′; anti-sense, 5′-[…]-3′. The PCR reaction is performed in a final volume of 50 μL containing 5 μL of a 10× stock solution of PCR buffer, 1 μL of 10 mM dNTP mixture (200 μM final), 2 μl of 50 mM Mg(SO4) (2 mM final), 0.5 μL of 20 μM solutions of each primer (0.2 μM final), 5 μL of template cDNA containing 0.5 ng DNA, 0.5 μL of Platinum Taq High Fidelity DNA polymerase (Gibco Life Technologies) and 36 μL of H2O. […]
In order to generate cell lines stably expressing MCHR1, subclone the insert into the Xba I and Not I sites of pcDNA(+)-3.1-neomycin (Invitrogen). […] The G418-resistant colonies are further selected for MCHR1 expression by measuring MCH-stimulated Ca^2+ transients with a fluorometric imaging plate reader (FLIPR, Molecular Devices). […]
Binding of compounds to MCHR1 is assessed in a competitive binding assay employing ^125I-MCH, compound and clone 43 membranes. […] Non-specific binding is assessed in the presence of 0.1 μM unlabeled MCH. Bound ^125I-MCH is determined by placing sealed plates in a Microbeta Trilux (Perkin Elmer Life and Analytical Sciences Inc.) and counting after a 12 h delay. […]

T1 sequence (Q99705 whole entry): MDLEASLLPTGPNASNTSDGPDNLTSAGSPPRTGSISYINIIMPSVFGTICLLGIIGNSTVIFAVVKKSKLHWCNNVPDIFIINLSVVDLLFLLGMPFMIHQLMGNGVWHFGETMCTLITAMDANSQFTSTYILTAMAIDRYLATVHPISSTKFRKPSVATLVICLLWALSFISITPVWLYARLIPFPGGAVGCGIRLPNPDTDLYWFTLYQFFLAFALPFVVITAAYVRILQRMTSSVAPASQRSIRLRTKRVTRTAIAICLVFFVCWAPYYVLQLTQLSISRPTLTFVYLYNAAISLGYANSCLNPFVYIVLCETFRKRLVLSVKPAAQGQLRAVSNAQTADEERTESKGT

| Ki [2] [nM] | Structure (SMILES) | average body weight reduction versus vehicle control [1] |
| --- | --- | --- |
| – | COc1cc(N2CCc3cc(-c4ccc(Cl)cc4)sc3C2=O)ccc1NC(=O)CN1CCCC1.Cl [Example 25, N-{4-[2-(4-Chloro-phenyl)-7-oxo-4,7-dihydro-5H-thieno[2,3-c]pyridin-6-yl]-2-methoxy-phenyl}-2-pyrrolidin-1-yl-acetamide hydrochloride] | about 6 grams |
| ~3 | O=C(CN1CCCC1)Nc1ccc(-n2ccc3cc(-c4ccc(Cl)cc4)sc3c2=O)cc1 [Example 58, N-{4-[2-(4-Chloro-phenyl)-7-oxo-7H-thieno[2,3-c]pyridin-6-yl]-phenyl}-2-pyrrolidin-1-yl-acetamide, hydrochloride] | – |

From patent US8263772B2, “MCH receptor antagonists” (Eli Lilly and Company, priority 2006, dated 2012)
